Test results taken from ChEMBL document CHEMBL1134772, “Synthesis and evaluation of hydroxylated polyamine analogues as antiproliferatives” (J Med Chem, 2001).
One block for each compound: values may come before it.

Columns and labels:
L1210 [1] = experiment: Amount of compound present per 10e6 L1210 cells after 48 hr of treatment with 20 uM of dose; assay type: functional, cell-based; settings: Mus musculus
L1210 [2] = experiment: Effect of compound on the level of spermine in polyamine pools of L1210 cells after 48 hr of treatment with 100 uM of dose; assay type: functional, Mus musculus
L1210 [3] = experiment: Amount of compound present per 10e6 L1210 cells after 48 hr of treatment with 100 uM of dose; assay type: functional, cell-based; settings: Mus musculus
[4] = Number of CD-1 mice died after administration of 100 mg/kg dose of compound; 1/5; assay type: functional, Mus musculus
L1210 [5] = experiment: Effect of compound on the level of putrescine in polyamine pools of L1210 cells after 48 hr of treatment with 100 uM of dose; assay type: functional, Mus musculus
L1210 [6] = experiment: Inhibitory concentration of compound against the growth of the L1210 cell line at 96 hr; assay type: functional, cell-based; settings: Mus musculus, L1210, 96 h
[7] = Number of CD-1 mice died after administration of 200 mg/kg dose of compound; 5/5; assay type: functional, Mus musculus
[8] = target: T1, Spermidine/spermine N(1)-acetyltransferase (SAT) (Mus musculus) (UniProt Q6P8J2+P48026); experiment: Percent of Spermidine/spermine-N1- acetyltransferase enzyme activity in L1210 cells after 48 hr of treatment with 10 uM of dose; assay type: cell-based
L1210 [9] = experiment: Effect of compound on the level of putrescine in polyamine pools of L1210 cells after 48 hr of treatment with 20 uM of dose; assay type: functional, Mus musculus
[10] = Number of CD-1 mice died in a 5-day course after administration of 10 mg/kg dose of compound; 0/7; assay type: functional, Mus musculus
L1210 [11] = experiment: Effect of compound on the level of spermine in polyamine pools of L1210 cells after 48 hr of treatment with 20 uM of dose; assay type: functional, Mus musculus
L1210 [12] = experiment: Inhibition of transport of [3H]spermidine in L1210 cells; assay type: functional, cell-based, Mus musculus
[13] = Number of CD-1 mice died in a 5-day course after administration of 25 mg/kg dose of compound; 0/7; assay type: functional, Mus musculus
L1210 [14] = experiment: Percent of S-adenosyl-methionine decarboxylase enzyme activity in L1210 cells after 6 hr of treatment with 1 uM of dose; assay type: cell-based
L1210 [15] = experiment: Effect of compound on the level of spermidine in polyamine pools of L1210 cells after 48 hr of treatment with 20 uM of dose; assay type: functional, Mus musculus
L1210 [16] = experiment: Inhibitory concentration of compound against the growth of the L1210 cell line at 48 hr; assay type: functional, cell-based; settings: Mus musculus, L1210, 48 h
L1210 [17] = experiment: Effect of compound on the level of spermidine in polyamine pools of L1210 cells after 48 hr of treatment with 100 uM of dose; assay type: functional, Mus musculus
[18] = Number of CD-1 mice died in a 5-day course after administration of 50 mg/kg dose of compound; 0/7; assay type: functional, Mus musculus
[19] = Number of CD-1 mice died in a 5-day course after administration of 75 mg/kg dose of compound; 0/5; assay type: functional, Mus musculus
[20] = target: T2, Ornithine decarboxylase (Mus musculus) (UniProt P00860); experiment: Percent of ornithine decarboxylase enzyme activity in L1210 cells after 4 hr of treatment with 1 uM of dose; assay type: cell-based
T2 sequence (whole entry): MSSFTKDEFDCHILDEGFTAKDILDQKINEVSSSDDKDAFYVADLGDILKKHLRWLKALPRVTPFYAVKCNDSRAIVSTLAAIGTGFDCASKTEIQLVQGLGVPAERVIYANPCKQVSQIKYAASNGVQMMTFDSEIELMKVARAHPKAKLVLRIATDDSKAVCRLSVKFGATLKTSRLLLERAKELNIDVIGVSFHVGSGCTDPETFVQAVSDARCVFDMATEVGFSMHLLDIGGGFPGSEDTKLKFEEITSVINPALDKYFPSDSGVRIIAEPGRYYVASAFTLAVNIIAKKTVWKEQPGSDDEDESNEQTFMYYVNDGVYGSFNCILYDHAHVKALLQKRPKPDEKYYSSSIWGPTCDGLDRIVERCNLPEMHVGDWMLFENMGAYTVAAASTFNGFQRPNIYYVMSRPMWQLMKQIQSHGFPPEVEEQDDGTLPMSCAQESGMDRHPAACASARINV

[21] = Number of CD-1 mice died in a 5-day course after administration of 100 mg/kg dose of compound; 0/5; assay type: functional, Mus musculus
L1210 [22] = experiment: Amount of compound present per 10e6 L1210 cells after 48 hr of treatment with 20 uM of it; assay type: functional, cell-based; settings: Mus musculus
L1210 [23] = experiment: Effect of compound on the level of spermine in polyamine pools of L1210 cells after 48 hr of treatment with 4 uM compound dose; assay type: functional, Mus musculus
[24] = Number of CD-1 mice died after administration of 400 mg/kg dose of compound; 0/5; assay type: functional, Mus musculus
L1210 [25] = experiment: Effect of compound on the level of spermidine in polyamine pools of L1210 cells after 48 hr of treatment with 20 uM compound dose; assay type: functional, Mus musculus
[26] = Number of CD-1 mice died after administration of 200 mg/kg dose of compound; 0/5; assay type: functional, Mus musculus
L1210 [27] = experiment: Percent of S-adenosyl-methionine decarboxylase enzyme activity in L1210 cells after 6 hr of treatment with 1 uM dose of compound; assay type: cell-based
[28] = target: T1, Spermidine/spermine N(1)-acetyltransferase (SAT) (Mus musculus); experiment: Percent of Spermidine/spermine-N1- acetyltransferase enzyme activity in L1210 cells after 48 hr of treatment with 10 uM dose of compound; assay type: cell-based
L1210 [29] = experiment: Effect of compound on the level of spermine in polyamine pools of L1210 cells after 48 hr of treatment with 20 uM compound dose; assay type: functional, Mus musculus
L1210 [30] = experiment: Effect of compound on the level of spermidine in polyamine pools of L1210 cells after 48 hr of treatment with 4 uM compound dose; assay type: functional, Mus musculus
[31] = Number of CD-1 mice died in a 5-day course after administration of 200 mg/kg dose of compound; 0/5; assay type: functional, Mus musculus
L1210 [32] = experiment: Inhibition of transport of [3H]-spermidine by L1210 cells; assay type: functional, cell-based, Mus musculus
[33] = Number of CD-1 mice died in a 5-day course after administration of 300 mg/kg dose of compound; 0/5; assay type: functional, Mus musculus
L1210 [34] = experiment: Effect of compound on the level of putrescine in polyamine pools of L1210 cells after 48 hr of treatment with 4 uM compound dose; assay type: functional, Mus musculus
[35] = target: T2, Ornithine decarboxylase (Mus musculus); experiment: Percent of ornithine decarboxylase enzyme activity in L1210 cells after 4 hr of treatment with 1 uM dose of compound; assay type: cell-based
L1210 [36] = experiment: Effect of compound on the level of putrescine in polyamine pools of L1210 cells after 48 hr of treatment with 20 uM compound dose; assay type: functional, Mus musculus
[37] = Number of CD-1 mice died after administration of 100 mg/kg dose of compound; 0/5; assay type: functional, Mus musculus
L1210 [38] = experiment: Amount of compound present per 10e6 L1210 cells after 48 hr of treatment with 4 uM of it; assay type: functional, cell-based; settings: Mus musculus
[39] = Number of CD-1 mice died in a 6-day course after administration of 200 mg/kg dose of compound; 10/12; assay type: functional, Mus musculus
L1210 [40] = experiment: Effect of compound on the level of spermidine in polyamine pools of L1210 cells after 48 hr of treatment with 10 uM of dose; assay type: functional, Mus musculus
L1210 [41] = experiment: Effect of compound on the level of putrescine in polyamine pools of L1210 cells after 48 hr of treatment with 10 uM of dose; assay type: functional, Mus musculus
L1210 [42] = experiment: Effect of compound on the level of spermine in polyamine pools of L1210 cells after 48 hr of treatment with 10 uM of dose; assay type: functional, Mus musculus
L1210 [43] = experiment: Amount of compound present per 10e6 L1210 cells after 48 hr of treatment with 10 uM of dose; assay type: functional, cell-based; settings: Mus musculus
[44] = Number of CD-1 mice died after administration of 325 mg/kg dose of compound; 5/10; assay type: functional, Mus musculus

T1 sequence (P48026 whole entry, looked up): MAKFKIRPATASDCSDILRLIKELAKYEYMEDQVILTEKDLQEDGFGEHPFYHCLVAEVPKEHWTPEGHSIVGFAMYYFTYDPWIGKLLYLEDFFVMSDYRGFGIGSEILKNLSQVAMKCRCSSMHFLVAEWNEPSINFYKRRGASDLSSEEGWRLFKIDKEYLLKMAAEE
T1 sequence (Q6P8J2 whole entry, looked up): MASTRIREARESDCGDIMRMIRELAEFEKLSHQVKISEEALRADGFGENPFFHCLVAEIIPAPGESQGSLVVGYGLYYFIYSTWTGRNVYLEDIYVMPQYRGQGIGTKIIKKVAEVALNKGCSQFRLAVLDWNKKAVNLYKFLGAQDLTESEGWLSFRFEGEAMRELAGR

Structure (SMILES): CCNCCCNCCCNCCCNCC1CC1
- Concentration (L1210 [1]): 2.17 nM
- Control (L1210 [2]): 56%
- Concentration (L1210 [3]): 2.59 nM
- No. of deaths/mice injected [4]: 1
- Control (L1210 [5]): 13%
- IC50 (L1210 [6]): 0.55 µM
- No. of deaths/mice injected [7]: 5
- Control [8]: 3260%
- Control (L1210 [9]): 22%
- No. of deaths/mice injected [10]: 0
- Control (L1210 [11]): 66%
- Ki (L1210 [12]): 13 µM
- No. of deaths/mice injected [13]: 0
- Control (L1210 [14]): 48%
- Control (L1210 [15]): 25%
- IC50 (L1210 [16]): 16 µM
- Control (L1210 [17]): 16%
- No. of deaths/mice injected [18]: 0
- No. of deaths/mice injected [19]: 0
- Control [20]: 26%
- No. of deaths/mice injected [21]: 0

Structure (SMILES): CCNC[C@H](O)CNCCCNC[C@@H](O)CNCC1CC1
- Amount (nmol/10^6 cells) (L1210 [22]): 3.05
- Control (L1210 [23]): 119%
- No. of deaths/mice injected [24]: 0
- IC50 (L1210 [6]): 0.97 µM
- Control (L1210 [25]): 32%
- No. of deaths/mice injected [26]: 0
- Control (L1210 [27]): 59%
- Control [28]: 2500%
- Control (L1210 [29]): 123%
- Control (L1210 [30]): 48%
- No. of deaths/mice injected [31]: 0
- Ki (L1210 [32]): 40 µM
- IC50 (L1210 [16]): 4.5 µM
- No. of deaths/mice injected [33]: 0
- Control (L1210 [34]): 43%
- Control [35]: 37%
- Control (L1210 [36]): 20%
- No. of deaths/mice injected [37]: 0
- Amount (nmol/10^6 cells) (L1210 [38]): 1.94
- No. of deaths/mice injected [21]: 0

- Control [20]: 61%
Structure (SMILES): CCNC[C@H](O)CNCCCNC[C@@H](O)CNCC

Structure (SMILES): CCNCCCNCCCNCCCNCC [BIS(ETHYL)NORSPERMINE]
- No. of deaths/mice injected [39]: 10
- Control (L1210 [2]): 30%
- Concentration (L1210 [3]): 2.44 nM
- Control (L1210 [40]): 14%
- Control (L1210 [5]): 0%
- Control (L1210 [41]): 30%
- Control [8]: 3880%
- Ki (L1210 [12]): 7 µM
- Control (L1210 [42]): 31%
- Concentration (L1210 [43]): 1.59 nM
- No. of deaths/mice injected [44]: 5
- Control (L1210 [14]): 42%
- Control (L1210 [17]): 6%
- Control [20]: 7%

- Control [20]: 35%
Structure (SMILES): CCNC[C@@H](O)CNCCCNC[C@H](O)CNCC
